Reference: patent US20120258938A1, “Enzymatic Production or Chemical Synthesis and Uses for 5,7-Dienes and UVB Conversion Products Thereof” (priority 2008, published 2012)

What was measured:
Human dermal fibroblasts = experiment: TGF-b1 induced collagen protein production by dermal fibroblasts; type: cell-based; conditions: collagenase sensitive protein; for TGF-b1 induced collagen protein production: [3H]-proline
Experimental: Human dermal fibroblasts grown from explant skin cultures at less than 10 subpassages were plated at 5×10^4 cells per well in 24 well Costar tissue culture plates and were grown to confluency. Complete MEM was then changed to serum free Complete MEM without non-essential amino acids. After 24 hours, culture medium was changed (450 μl/well) to the same and secosteroids listed in Table 14 were added in 10 μl absolute alcohol (ETOH) to a final concentration of 10^−9 and M, 3 replicate wells each. Vehicle control wells (n=6) contained 10 μl (ETOH). After 2 hour pre-incubation, hr TGF-b1 (R and D systems) was added to each well except ETOH wells at a final concentration of 5 ng/ml. After 48 hours of culture, plate wells were paused with 1μ Cl ^3[H]-proline. After 24 hours, culture supernatants were harvested and collagenase sensitive protein was determined as previously described (44).

[1] = test system: anti-CD3 stimulated DBA/1 Lac J spleen cells; experiment: Cytokine/chemokine production by anti-CD3 stimulated spleen cells (Luminex); type: cell-based, mouse; conditions: 5 days; for G-CSF / GM-CSF / IFNγ / IL-1α / IL-6 / IL-10 / IL-17 / IP-10 / KC / MCP-1: spleen cells + anti-CD3 (4 μg/ml) + analogue 10^−7 M, supernatant, one mouse; for Th2 cytokine (IL-10) production: anti-CD3, 10^−7 M
Experimental: Vitamin D analogues were solubilzed in absolute alcohol (EtOH) and added at 1:100 dilution to cultures of spleen cells from normal DBA/1 Lac J mice (Table 13). […] Therefore, changes are not due to decreased cell viability.
Spleen cells from three normal 8 wk old female DBA/1 Lac J mice were cultured in 96 well tissue culture plates in quadruplicate at 2×10^6 cells/ml in RPMI 1640 medium containing 9% FCS with and without anti-CD3 (4 μg/ml) and with anti-CD3+10^−7M natural vitamin D analogues for 5 days after which time supernatants were harvested and subjected to cytokine multiplex on a Luminex instrument using Milliplex Mouse Kit (values are pg/ml). The general trend in changes in cytokine levels were similar for each of the mice but some produced different levels of each cytokine for each culture additions. Data from one mouse are given and bold numbers indicate those that changed from anti-CD3 stimulated culture with vitamin D analogues added. There was no significant stimulation of IL-1 g, IL-2, IL-4, IL-5, IL-7, IL-9, IL-12 p70, IL-13, IL-15, MIP-2, RANTES or TNFα with the anti-CD3 MOAB.

CYP24 promoter = experiment: CYP24-Luc reporter in HaCaT keratinocytes; type: cell-based, human
Excerpt: Construct CYP24-Luc and VDRE-Luc constructs were a generous gift from Dr. Tai Cheng, Ph.D. (Boston University Medical Campus, Core Lab Director). It was originally developed by Vaisanen et al. (27). PLuc and NFκB-Luc construct was described previously (28-29). huVDR construct was a generous gift from Dr. D. Bikle. HaCaT keratinocytes were transfected with NFκB-Luc, CYP-24-Luc, VDRE-Luc and hVDR constructs using Lipofectamine Plus (Invitrogen, Carlsbad, Calif.) in DMEM medium with firefly luciferase reporter gene plasmid and with phRL-TK.
HaCaT keratinocytes were transfected with NFκB-Luc construct using Lipofectamine Plus (Invitrogen, Carlsbad, Calif.) in DMEM medium with firefly luciferase reporter gene plasmid and with phRL-TK (expresses Renilla luciferase and serves as normalization control; Promega, Madison, Wis.). After transfection cells were incubated for 24 h in complete medium, and then after change to fresh media treated with drug or vehicle (ethanol) at the concentration of 10 nM for 30 minutes, 1 h, 4 h, 16 h and 24 h. The firefly luciferase and Renilla luciferase signals were recorded with a TD-20/20 luminometer (Turner Designs, Sunnyvale, Calif.); background luminescence was subtracted and the resulting promoter specific firefly signal was divided by the Renilla signal (proportional to the number of transfected cells). The values obtained were divided by the mean of control (untreated) cells.

involucrin = experiment: Involucrin protein expression in HaCaT (flow cytometry, microscopy); type: cell-based, human; conditions: 24 h; for expression of involucrin: 10 nM; for increase in the expression of involucrin: flow cytometry
HaCaT keratinocytes = experiment: [3H]-thymidine DNA synthesis in HaCaT keratinocytes; type: cell-based, human
How it was run: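 HaCaT cells in DMEM with 5% charcoal-treated FBS received vehicle (ethanol) or secosteroids for 48 hours, with [3H]-thymidine at 1 μCi/mL for the final 12 hours. Incorporated radioactivity from trypsin-harvested cells on glass fiber filters was counted by beta counter.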

| Compound | TGF-b1 induced collagen protein production (Human dermal fibroblasts) | G-CSF [1] [pg/mL] | GM-CSF [1] [pg/mL] | IFNγ [1] [pg/mL] | IL-1α [1] [pg/mL] | IL-6 [1] [pg/mL] | IL-10 [1] [pg/mL] | IL-17 [1] [pg/mL] | IP-10 [1] [pg/mL] | KC [1] [pg/mL] | MCP-1 [1] [pg/mL] | CYP24 promoter activity (CYP24 promoter) | expression of involucrin (involucrin) | increase in the expression of involucrin (involucrin; 10^−8 M) | keratinocyte proliferation compared with 1α,25-dihydroxycholecalciferol (HaCaT keratinocytes; HaCaT, 48 h) | Th2 cytokine (IL-10) production [1] | other results |
| --- | --- | --- | --- | --- | --- | --- | --- | --- | --- | --- | --- | --- | --- | --- | --- | --- | --- |
| C=C1/C(=C\C=C2/CCC[C@]3(C)[C@@H]([C@H](C)CCCC(C)(C)O)CC[C@@H]23)C[C@@H](O)C[C@@H]1O [1α,25-dihydroxycholecalciferol, (5Z,7E)-9,10-secocholesta-5,7,10(19)-triene-1α,3β,25-triol, reference compound] | inhibited TGF-b1 induced collagen protein production | 11 | 7 | 0 | 1 | 12 | 1 | 1 | 5 | 3 | 197 | stimulated transcriptional activity of CYP24 promoter | increase of expression of involucrin | negligible |  |  |  |
| C=C1CC[C@H](O)C/C1=C/C=C1\CCC[C@@]2(C)[C@H]1CC[C@@H]2[C@@](C)(O)CCCC(C)C [20(OH)D3, (5Z,7E)-9,10-secocholesta-5,7,10(19)-triene-3β,20-diol] | inhibited TGF-b1 induced collagen protein production | 10 | 51 | 494 | 8 | 55 | 37 | 59 | 83 | 39 | 100 | failed to stimulate the CYP24 promoter activity |  | ~3.7 fold | inhibit keratinocyte proliferation more potently than the control compound | increased | DNA synthesis ([3H]-thymidine assay) (HaCaT keratinocytes; 48 h, 10^−8 and 10^−7 M): inhibited DNA synthesis; involucrin dMFI (involucrin; 10^−8 M): 71±8 |
| C=C1CC[C@H](O)C/C1=C/C=C1\CCC[C@]2(C)[C@@H](C(C)(O)CC(O)CC(C)C)CC[C@@H]12 (stereo partly drawn) [20,23-dihydroxycholecalciferol, (5Z,7E)-9,10-secocholesta-5,7,10(19)-triene-3β,20,23-triol] |  | 103 | 47 | 271 | 11 | 40 | 56 | 57 | 96 | 47 | 182 | stimulated activity of CYP24 promoter poorly | stimulated expression of involucrin gene |  | inhibit keratinocyte proliferation more potently than the control compound | increased | decrease in DNA synthesis (HaCaT keratinocytes; 0.1 nM): 30%; decrease in DNA synthesis (HaCaT keratinocytes; 10 nM): approximately 50% |
| C=C1CC[C@H](O)C/C1=C/C=C1\CCC[C@]2(C)[C@@H](C(C)=O)CC[C@@H]12 [pD3, (5Z,7E)-3β-hydroxy-9,10-secopregna-5,7,10(19)-trien-20-one] | inhibited TGF-b1 induced collagen protein production |  |  |  |  |  |  |  |  |  |  |  |  |  |  |  | Collagen CPM/Well (mean ± SEM) × 10^−5 FB (Human dermal fibroblasts; hrTGF-b1 5 ng/ml, secosteroids at 10^−10M, 3[H]-proline): 181 ± 14 CPM/Well × 10^−5 FB; proliferation (DNA synthesis) (HaCaT keratinocytes; HaCaT, 48 hr): inhibits proliferation |
